The values below come from PMC2837410, “Structural Basis of Cell Wall Cleavage by a Staphylococcal Autolysin” (PLoS Pathogens, 2010).

The test system of one assay is wt amidase. The settings on record: chelating agents likely remove the zinc ion; cited from earlier work. The text has this:
In order to determine whether amino acids in the vicinity of the zinc ion are required for enzymatic activity, residues H60, H177 and D179 were separately mutated to alanine. All three mutant proteins were expressed and purified to homogeneity. None of them has lytic activity in zymogram gels with heat-inactivated S. aureus cells, whereas the wild type (wt) protein is able to lyse cell walls efficiently (Figure 4A). Similar results were obtained with lysis assays using purified S. aureus PGN (Figure 4B). Our results therefore provide evidence for a critical role of the zinc ion and its surroun ...

A further assay has as its target T1, AmiE wt (Staphylococcus epidermidis, UniProt O33635).
T1 construct: A DNA fragment coding for amino acids 303 to 516 of the atlE gene product; GST (N, cleaved yes); made in house; host or cells: Escherichia coli BL21 (DE3)
T1 sequence (O33635 303-516): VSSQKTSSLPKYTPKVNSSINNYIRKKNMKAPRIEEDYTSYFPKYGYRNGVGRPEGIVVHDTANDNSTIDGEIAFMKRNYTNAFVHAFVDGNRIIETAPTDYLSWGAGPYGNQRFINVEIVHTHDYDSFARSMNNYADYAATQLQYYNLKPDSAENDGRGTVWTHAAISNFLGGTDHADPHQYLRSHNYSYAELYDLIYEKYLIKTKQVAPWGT
Briefly: MTP digestion assay (cleavage of PGN-derived ligands), wt enzyme. The settings on record: 10 µg protein + 0.1 mg ligand in 10 µl 50 mM Tris/HCl pH 8.0, 150 mM NaCl; 72 h at 37°C; products analysed by HPLC and ESI-MS. The assay is classed as biochemical. How it is done: (§1) To determine the minimal PGN sequence that can still be cleaved by AmiE, we performed cleavage assays with three PGN-derived compounds: MTP, N-acetylmuramyl-L-alanyl-D-iso-glutamine (MDP), and N-acetyl-D-glucosaminyl-(1,4)-N-acetylmuramyl-L-alanyl-D-iso-glutamine (GMDP). MDP and GDMP were purchased from Sigma and Calbiochem, respectively, whereas MTP was synthesized as described. All ligands were incubated with the wt protein for 72 h at 37°C, followed by analysis of products with HPLC and ESI mass spectrometry. […] The m/z profile of the H177A mutant is dominated by peaks at m/z 621 and 649 (Figure 5, right). The latter peak represents the MTP educt plus an unknown additional mass, which probably originates from the synthesis. Both peaks are replaced by peaks at m/z 346 and 374 in the profile for the wt protein (Figure 5, left). The first peak corresponds to the expected mass of the cleaved peptide stem while the second one is the digestion product of the compound with the higher mass. We conclude that cleavage by AmiE requires the presence of a third amino acid in the peptide stem. As the lysine is quite distant from the active site, it is most likely not required for the catalytic reaction itself but likely serves to anchor the ligand in the binding site. Similar cleavage results have previously been obtained for the catalytically active PGRP-L protein, which also requires MTP for cleavage.
For each assay, 10 µg of wt or mutant protein and 0.1 mg of the appropriate ligand were incubated in 10 µl gel filtration buffer (50 mM Tris/HCl pH 8.0, 150 mM NaCl). The reaction was stopped after 72 h by adding 100 µl acetonitrile with 0,05% (v/v) formic acid. The sample was then frozen at -20°C until used for ESI-MS.

The next assay addresses T2, AmiE (Staphylococcus epidermidis, UniProt O33635).
T2 construct: A DNA fragment coding for amino acids 303 to 516 of the atlE gene product; GST (N, cleaved yes); made in house; host or cells: Escherichia coli BL21 (DE3)
T2 sequence (O33635 303-516): T1 sequence (O33635 303-516)
Briefly: Digestion assay with modified AmiE substrates (Mca substrate derivatives). Format: biochemical. The settings on record: 70 µM substrate, 7.2 µM AmiE, 37°C, 50 mM sodium phosphate buffer pH 7.2, 6 h; stopped with 1% TFA; RP-HPLC C-18, UV 214 nm. How it is done:
The five substrates, each at a concentration of 70 µM, were processed by 7.2 µM AmiE at 37°C in digestion buffer (50 mM sodium phosphate buffer, pH 7.2). After 1, 3 and 6 h, the reaction was stopped by adding trifluoroacetic acid to a final concentration of 1%. Decrease of the initial substrate and formation of the Mca product were analyzed by analytical RP-HPLC using a binary HPLC system (Shimadzu, Tokyo, Japan) with a UV detector, a Nucleosil C-18 column (5 µm particle size, 150×2 mm) from Dr Maisch GmbH (Tuebingen, Germany) and a two solvent system: (A) 0.055% (v/v) TFA in water and (B) 0.05% TFA in 80% acetonitrile in water. The substrate was well separated from the generated cleavage product Mca, and was quantified at 214 nm.

A further assay deals with T3, AmiE H177A (Staphylococcus epidermidis, UniProt O33635, H479A).
T3 construct: A DNA fragment coding for amino acids 303 to 516 of the atlE gene product; GST (N, cleaved yes); made in house; host or cells: Escherichia coli
T3 sequence (O33635 303-516 H479A): T1 sequence (O33635 303-516) with H177A
Briefly: MTP digestion assay, inactive mutant (negative control). Format: biochemical. The settings on record: 10 µg protein + 0.1 mg ligand in 10 µl 50 mM Tris/HCl pH 8.0, 150 mM NaCl; 72 h; ESI-MS. The method, then:
as §1, with “Similar cleavage results have previously been obtained for the catalytically active PGRP-L protein, which also requires MTP for cleavage.” left out

Where a chain is given by its changes, count along the chain named.

Regarding `c1cnc2c(c1)ccc1cccnc12` [phenanthroline], in the assay with wt amidase, the “effect of chelating agent on activity of the wt amidase” value was “loss of activity”.
For “N-acetylmuramyl-L-alanyl-D-iso-glutamine [MDP]”, the “cleavage of ligand by the wt enzyme” value on AmiE wt is “neither MDP nor GMDP are cleaved”.
For “Mca-Ala-D-iGln-Ala-D-Ala-Arg-OH [Ala-substrate]”, on AmiE, the “amount of substrate cleaved after 6 h” value is recorded as “Approximately 10%”.
Take “Mca-Ala-D-iGln-Lys-D-Ala-Arg-OH [Lys-substrate]”: the “amount of substrate cleaved after 6 h” value on AmiE was “almost half”.
On to “N-acetylmuramyl-L-alanyl-D-iso-glutamyl-L-lysine [MTP]”, for which the “cleavage of ligand by the H177A mutant” value on AmiE H177A is recorded as “does not cleave”. On AmiE wt, the “cleavage of ligand by the wt enzyme” value is “cleaved into two fragments”.
Regarding “N-acetyl-D-glucosaminyl-(1,4)-N-acetylmuramyl-L-alanyl-D-iso-glutamine [GMDP]”, the “cleavage of ligand by the wt enzyme” value at AmiE wt is given as “neither MDP nor GMDP are cleaved”.
`O=C(O)CN(CCN(CC(=O)O)CC(=O)O)CC(=O)O` [EDTA]: in the assay with wt amidase, the “effect of chelating agent on activity of the wt amidase” value is “loss of activity”.
